# Assay results as given in patent US20080118943A1 (priority 2005, published 2008).
# Tests used:
# [1] = system: wild type L. plantarum WCFS1; test: Growth rate of wild type L. plantarum on modified CDM (lacking folate dependent metabolites) with methotrexate; type: cell-based, Lactobacillus plantarum; conditions: for growth inhibition of the wild type strain: modified CDM
# Protocol: (§1) Wild type L. plantarum WCFS1 strains and its derivatives were grown at 37° C. on Chemically Defined Media (CDM), containing 19 g/L β-phosphoglycerate (6) or modified CDM. In this modified CDM, glycine, inosine, orotic acid, thymidine, guanine, adenine, uracil and xantine were omitted from the normal CDM. Additionally […] chloroamphenicol was added to all the media used. Methotrexate (Sigma, […]) was added to both types of CDM, in concentrations ranging from 0 to 10 mg/l.
# (§2) Microtiter plates were used to determine the growth rate of the three L. plantarum strains harbouring the different vectors. The growth of the three strains was monitored in a 96 well microtiter plate for 35 hours using a spectrophotometer (SPECTRAmax®, Molecular Devices, Sunnyvale, Calif., USA). The growth was tested on the two types of media, and each construct was analyzed in triplicate on both media for the following MTX concentrations: 0, 0.3125, 0.625, 1.25 and 2.5 mg/L.
# [2] = system: folate overproducing L. plantarum strains; test: Growth rate of folate overproducing L. plantarum strains (pNZ7019, pNZ7021) on modified CDM with methotrexate; type: cell-based, Lactobacillus plantarum; conditions: 2.5 mg/L MTX
# Protocol: as §1, §2
# [3] = system: L. plantarum strains (wild type, pNZ7019, pNZ7021); test: Growth rate of L. plantarum strains on CDM with folate dependent metabolites and methotrexate; type: cell-based, Lactobacillus plantarum; conditions: 0 to 2.5 mg/L MTX
# Protocol: as §1, §2
# L. lactis = conditions: cited from earlier work
Structure (SMILES),growth inhibition of the wild type strain ([1]; 2.5 mg/L MTX),"growth rate (μ) of the wild type ([1]; 1.25, 1.5, 2.0 and 2.5 mg/l MTX, medium lacking folate dependent metabolites)",growth inhibition of the wild type strain ([1]; between 0 and 2.5 mg/L MTX),growth of the folate overproducing strains [2],growth inhibition in the presence of folate dependent metabolites [3],sensitivity to antifolate (L. lactis)
"CN(Cc1cnc2nc(N)nc(N)c2n1)c1ccc(C(=O)N[C@@H](CCC(=O)O)C(=O)O)cc1 [MTX, methotrexate]",complete growth inhibition,< 0.05 h⁻¹,dose dependent growth inhibition,grew well,none of the tested strains was significantly inhibited,insensitive
COc1cc(Cc2cnc(N)nc2N)cc(OC)c1OC [trimethoprim],–,–,–,–,–,insensitive
